Experimental data as given in patent US8168596B2, “Use of cycloartane compounds for treating arthritis” (NuLiv Holding Inc., priority 2008, dated 2012).

Columns and labels:
MMP-1 [1] = experiment: Western blot of MMP-1 in pre-treated human chondrocytes (HCHs); format: cell-based; settings: 0.1 μM, 48 h
MMP-13 [2] = experiment: Western blot of MMP-13 in pre-treated human chondrocytes (HCHs); format: cell-based; settings: 0.1 μM, 48 h
Type II Collagen = experiment: Western blot of Type II Collagen in pre-treated human chondrocytes (HCHs); format: cell-based; settings: PMA-pre-treated HCH culture medium; 0.1 μM, 48 h
MMP-1 [3] = experiment: Western blot of MMP-1 in PMA- or IL-1β-pre-treated SW1353 cells (Example 6); format: cell-based, human; settings: 48 h
Protocol: (§1) The cells were then plated on 6-cm dishes at a density of 1×10^6 cells/dish for 24 hours prior to any treatment. At the beginning of the experiment, the cells were pre-treated with 100 ng/mL PMA or 10 ng/mL IL-1β for 24 hours. The cells were then treated 0.1 μM Dexamethasone with, various astragaloside compounds (0.1 μM) or extracts of Astragalus membranaceous (1 μg/mL) at indicated dosages for another 48 hours. For control sample, 0.1% DMSO was used as a negative control for these experiments. The conditioned culture mediums were then centrifuged, 2-fold concentrated and collected for assay of collagens or MMPs secreted into the culture medium.
(§2) Western blotting analysis was carried out on both cultured medium and cell lysates, as follows. The cells were washed and lysed in 0.2 mL of lysis buffer (1% NP-40, 50 mM Tris-HCl, pH 7.4, 180 mM NaCl, 1 mM EDTA, 1 mM PMSF, 1 mM NaF, 10 mM Na3VO4) for 30 min at 4° C. After centrifuging at 17500 g for 15 min, the supernatants of cell lysate were also collected. Protein concentration of the samples were measured using the bicinchoninic acid (BCA) protein assay kit according to the manufacturer's protocol (Pierce, Rockford, Ill., USA). Equal amount of protein samples of concentrated conditioned medium (100 μg) or cell lysate supernatants (50 μg) were mixed with an appropriate volume of 4×SDS sampling buffer and separated by 8% SDS-PAGE gel. The protein bands separated in the SDS-PAGE gel were blotted onto a polyvinylidene fluoride (PVDF) membrane. The blotted PVDF membrane was washed twice and blocked in freshly prepared Tris-buffered saline (TBS) containing 0.1% Tween-20 and 7% skim milk (TBST) for 2 hours at room temperature. The PVDF membrane was then incubated with either antibodies against collagen I and III or the housekeeping protein α-tubulin (Santa Cruz Biotechnology, Santa Cruz, Calif.) for 18 hours at 4° C. Horseradish peroxidase-conjugated anti-goat antibody was used as secondary antibody. Signals were visualized by an enhanced chemiluminescence kit (Clonetech, Palo Alto, Calif., USA) followed by exposure to X-ray films.

HCH cells [4] = experiment: Proline uptake assay; format: cell-based, human; settings: astragalosides 0.1 μM, 24 h, Ctrl 1.00
Protocol: The proline uptake assay was carried out as described below, generally in accordance with the method disclosed in Biochim Biophys Acta. 1104:283-292, 1992, the contents of which are incorporated by reference. Briefly, HCH cells were seeded into a 24-well plate at a density of 3×10^4 cells per well and cultured for 24 hours. The cells were then treated in the absence (solvent control) or presence of the astragalosides (0.1 μM) or Astragalus membranaceous extracts (1.0 μg/mL) for another 24 hours. The treated cells were then washed once with PBS and incubated in amino acid free medium (AAFM) for another 30 min. The treated cells were then replaced with fresh AAFM containing 50 μg/mL of ascorbate and total of 0.5 mM of L-proline containing 1 μCi [^3H] Proline (American Radiolabelled Chemicals Inc, ARC, St. Louis, Mo., USA). At designated time intervals, the cells were washed with AAFM containing cold proline and then lysed in 200 μL of 2% SDS. Cell lysates were centrifuged at 15000 g for 15 min. Intracellular proline uptaken by the cells was determined by transferring 10 μL of the cell lysate to filter-bottomed UniFilter plates (Perkim-Elmer) and counting. The samples were measured for their protein concentrations using the BCA protein assay kit as described above. The amount of proline accumulated in the cells was calculated and normalized to protein concentration. And cellular uptake rate was expressed as nmole of L-proline per minute per […] of cell protein (nmole/min/μg).

HCH cells [5] = experiment: Glucosamine uptake assay; format: cell-based, human; settings: astragalosides 0.1 μM, 24 h, Ctrl 1.00
Protocol: The HCHs were cultured as described above in Example 7. For the glucosamine uptake test, HCH cells were seeded into 24-well plate at a density of 3×10^4 cells per well and cultured for 24 hours. The cells were then treated in the absence (solvent control) or presence of the astragalosides (0.1 μM) or Astragalus membranaceous extracts (1.0 μg/mL) for another 24 hours. The treated cells were then washed twice with PBS and incubated in glucose and serum free medium (GSFM). After 2 hours, the cells were replaced with fresh GSFM containing 0.2 μCi of [^14C]-Glucosamine (American Radiolabelled Chemicals Inc, ARC, St. Louis, Mo., USA). At the designated time interval, the cells were washed twice with GSFM containing cold glucosamine and then lysed in 200 μL of 2% SDS. Cell lysates were centrifuged at 15000 g for 15 min. Intracellular uptaken glucosamine was determined by transferring 10 μL of the cell lysate to filter-bottomed UniFilter plates (Perkim-Elmer) and counting. The samples were measured for their protein concentration using the BCA protein assay kit as described above. The amount of glucosamine accumulated in the cells was calculated and normalized to protein concentration and uptake rate was expressed as counts per minute per microgram of cell protein (cpm/min/μg).

MMP-13 [6] = experiment: Western blot of MMP-13 in PMA- or IL-1β-pre-treated SW1353 cells (Example 6); format: cell-based, human; settings: 0.1 μM, 48 h
Protocol: as §1
as §2, with “The PVDF membrane was then incubated with either antibodies against collagen I and III or the housekeeping protein α-tubulin (Santa Cruz Biotechnology, Santa Cruz, Calif.) for 18 hours at 4° C.” left out

MMP-2 = experiment: Zymography of MMP-2 from pre-treated SW1353 cells; format: cell-based, human; settings: PMA-pre-treated SW1353; 0.1 μM, 24 h
Protocol: (§3) At the beginning of the experiment, the cells were pre-treated with 100 ng/mL PMA or 10 ng/mL IL-1β for 24 hours. The cells were then treated with 0.1 μM Dexamethasone, various astragaloside compounds (0.1 μM) or extracts of Astragalus membranaceous (1 μg/mL) at indicated dosages for another 24 hours. For control sample, 0.1% DMSO was used as a negative control for these experiments. The conditioned culture mediums were then centrifuged, 2-fold concentrated and collected for assay of collagens or MMPs secreted into the culture medium.
(§4) The proteolytic activities of MMPs from SW1353 cells were measured essentially as described previously (Circ Res, 1999; 85:906-911). The cells were lysed in lysis buffer (1% Triton X-100, 50 mM Tris-Cl, pH 7.4, 180 mM NaCl, 1 mM EDTA). The samples were measured for their protein concentration using the bicinchoninic acid (BCA) protein assay kit as described. Samples of concentrated conditioned medium and cell lysates were mixed with non-reducing electrophoresis loading buffer and subjected to electrophoresis under non-reducing conditions. The electrophoresis was carried out on a 10% SDS-PAGE co-polymerized with 2 mg/mL gelatin or casein (Sigma, St. Louis, Mo. USA). For zymographic analysis of pro-MMP-2 and activated MMP-2, the total 20 μg of culture medium were used for electrophoresis. Following electrophoresis, renaturation of the proteins was achieved by incubating the gels twice in 25 g/L Triton X-100 at room temperature for 10 min. Subsequently the gels were incubated in 50 mM Tris-HCl, pH 7.5 containing 0.2 M NaCl, 0.02% Brij35 and 10 mM CaCl2 at 37° C. for 18 hours. After the gels were stained with Coomassie Brilliant Blue R-250 and destained, zones of proteolytic activities became visible as transparent bands in the stained gel. In order to obtain higher sensitivity, the gels were further destained in a solution of 1% Triton X-100 (1 to 2 hours). This procedure increased the signal-to-noise ratio, allowing the visualization of faint gelatinase bands at 92 kDa, 125 kDa and greater than 200 kDa. Zymograms were read using a Molecular Dynamics (Sunnyvale, Calif., USA) computing laser densitometer with Image Quant software.

MMP-9 = experiment: Zymography of MMP-9 from pre-treated SW1353 cells; format: cell-based, human; settings: PMA-pre-treated SW1353; 0.1 μM, 24 h
Protocol: as §3, §4

MMP-1 [7] = experiment: Zymography of MMP-1 from pre-treated SW1353 cells; format: cell-based, human; settings: PMA-pre-treated SW1353; 0.1 μM, 24 h
Protocol: as §3, §4

MMP1 = settings: UO126 10 μM, SP600125 25 μM, SB203580 5 μM, 24 h, then PMA 100 ng/mL 24 h
Protocol: The SW1353 cells were grown at 37° C. in a humidified incubator under 5% CO2 and 95% air in the culture medium as described above. The SW1353 cells were then sub-cultured into 6-well culture plates with serum free medium at an average amount of 2×10^5 cells per well and incubated for 24 hours. Then, the SW1353 cells were treated with 10 μM UO126 (MEK1-specific inhibitor), 25 μM, SP600125 (JNK-specific inhibitor), 5 μM SB203580 (p38-specific inhibitor), or 20 μM LY294002 (PI3K kinase inhibitor), and incubated for another 24 hours. Later, the SW1353 cells were treated with 100 ng/mL PMA and again incubated for 24 hours. Finally, the SW1353 cells were under cell extraction and the cell lysate was used for further luciferase analysis and western blotting analysis.
The SW1353 cells were grown at 37° C. in a humidified incubator under 5% CO2 and 95% air in the culture medium as described above. The SW1353 cells were then sub-cultured into 24-well culture plates and cultured for 24 hours. […] Following cell extraction, the cell lysate was centrifuged at 4° C., 20000 g for 30 minutes and then transferred to a 1.5 ml-microcentrifuge tube. Then, 100 μl buffer A (0.1 mM luciferin) and 350 μl buffer B (1 M MgSO4, 1 M Hepes (pH 7.8), 0.1 M ATP) were added into the microcentrifuge tube. The luciferase activity of final mixture was measured by a luminometer for 30 seconds.

[8] = PMA-pre-treated HCH cell extract
[9] = PMA-pre-treated HCH culture medium
[10] = PMA-pre-treated SW1353 culture medium, 0.1 μM
[11] = PMA-pre-treated SW1353 culture medium
[12] = PMA-pre-treated SW1353 cell extract, 0.1 μM
[13] = PMA-pre-treated SW1353 cell extract

CC(C)(O)C1CC[C@](C)(C2[C@@H](O)C[C@@]3(C)C4C[C@H](OC5OC(CO)C(O)C(O)C5O)C5C(C)(C)[C@@H](O)CCC56CC46CC[C@]23C)O1 (stereo partly drawn) [AA, cycloastragenol 6-O-β-D-glucopyranose]
MMP-1, Western blot, relative to Ctrl 1.00 (MMP-1 [1]; [8]): 0.44
MMP-1, Western blot, relative to Ctrl 1.00 (MMP-1 [1]; [9]): 0.44
MMP-13, Western blot, relative to Ctrl 1.00 (MMP-13 [2]; [8]): 0.44
MMP-13, Western blot, relative to Ctrl 1.00 (MMP-13 [2]; [9]): 0.49
Type II Collagen, Western blot, relative to Ctrl 1.00 (Type II Collagen): 1.42
MMP-1, Western blot, relative to Ctrl 1.00 (MMP-1 [3]; IL-1β-pre-treated SW1353 cell extract, compounds 0.1 μM): 0.74
MMP-1, Western blot, relative to Ctrl 1.00 (MMP-1 [3]; IL-1β-pre-treated SW1353 culture medium, 0.1 μM): 0.76
MMP-1, Western blot, relative to Ctrl 1.00 (MMP-1 [3]; [10]): 0.52
proline uptake, Relative fold (HCH cells [4]): 2.80 fold
glucosamine uptake, Relative fold (HCH cells [5]): 1.19 fold
MMP-13, Western blot, relative to Ctrl 1.00 (MMP-13 [6]; IL-1β-pre-treated SW1353 culture medium): 0.93
MMP-13, Western blot, relative to Ctrl 1.00 (MMP-13 [6]; [11]): 0.84

CC(=O)O[C@H]1[C@H](O[C@H]2CC[C@]34C[C@]35CC[C@]3(C)[C@@H]([C@@]6(C)CC[C@@H](C(C)(C)O)O6)[C@@H](O)C[C@@]3(C)[C@@H]5C[C@H](O[C@@H]3O[C@H](CO)[C@@H](O)[C@H](O)[C@H]3O)[C@H]4C2(C)C)OC[C@@H](OC(C)=O)[C@@H]1O [IsoAS1, Isoastragaloside I]
MMP-2, Zymography, relative to Ctrl 1.00 (MMP-2): 1.01
MMP-1, Western blot, relative to Ctrl 1.00 (MMP-1 [3]; [12]): 0.67
MMP-1, Western blot, relative to Ctrl 1.00 (MMP-1 [3]; [10]): 0.77
proline uptake, Relative fold (HCH cells [4]): 2.82 fold
glucosamine uptake, Relative fold (HCH cells [5]): 1.16 fold
MMP-9, Zymography, relative to Ctrl 1.00 (MMP-9): 0.85
MMP-13, Western blot, relative to Ctrl 1.00 (MMP-13 [6]; [13]): 1.19
MMP-13, Western blot, relative to Ctrl 1.00 (MMP-13 [6]; [11]): 1.03
MMP-1, Zymography, relative to Ctrl 1.00 (MMP-1 [7]): 0.66

CC(=O)O[C@@H]1[C@@H](O)[C@H](O[C@H]2CC[C@]34C[C@]35CC[C@]3(C)[C@@H]([C@@]6(C)CC[C@@H](C(C)(C)O)O6)[C@@H](O)C[C@@]3(C)[C@@H]5C[C@H](O[C@@H]3O[C@H](CO)[C@@H](O)[C@H](O)[C@H]3O)[C@H]4C2(C)C)OC[C@H]1O [IsoAS2, Isoastragaloside II]
MMP-2, Zymography, relative to Ctrl 1.00 (MMP-2): 1.04
MMP-1, Western blot, relative to Ctrl 1.00 (MMP-1 [3]; [12]): 1.28
MMP-1, Western blot, relative to Ctrl 1.00 (MMP-1 [3]; [10]): 0.77
proline uptake, Relative fold (HCH cells [4]): 1.61 fold
glucosamine uptake, Relative fold (HCH cells [5]): 1.07 fold
MMP-9, Zymography, relative to Ctrl 1.00 (MMP-9): 0.95
MMP-13, Western blot, relative to Ctrl 1.00 (MMP-13 [6]; [13]): 0.60
MMP-13, Western blot, relative to Ctrl 1.00 (MMP-13 [6]; [11]): 0.80
MMP-1, Zymography, relative to Ctrl 1.00 (MMP-1 [7]): 0.95

C[S+]([O-])c1ccc(-c2nc(-c3ccncc3)c(-c3ccc(F)cc3)[nH]2)cc1 (stereo not shown) [SB203580]
luciferase activity (control group 1 fold, PMA-only group 8 fold) (MMP1): 2 fold
